According to patent US8927559B2, “Quinazolinone-type compounds as CRTH2 antagonists” (Merck Sharp & Dohme Corp., priority 2010, dated 2015):
“And” between values parts separate entries of the source, which are not always exact repeats. Identical values can stand only once.

Each compound was assayed against T1, CRTH2 receptor (hCRTH2) (Homo sapiens, UniProt Q9Y5Y4) (assay: Radioligand binding assay ([3H]PGD2 competition, membranes of HEK-hCRTH2 cell line)). Settings: 3.0 nM [3H]PGD2, HEK-hCRTH2 membranes, 60 min, room temperature; read-out: Ki.
T1 construct: expressed in transfected cells; host or cells: HEK cells (HEK-hCRTH2 cell line), membranes
T1 sequence (Q9Y5Y4 1-395): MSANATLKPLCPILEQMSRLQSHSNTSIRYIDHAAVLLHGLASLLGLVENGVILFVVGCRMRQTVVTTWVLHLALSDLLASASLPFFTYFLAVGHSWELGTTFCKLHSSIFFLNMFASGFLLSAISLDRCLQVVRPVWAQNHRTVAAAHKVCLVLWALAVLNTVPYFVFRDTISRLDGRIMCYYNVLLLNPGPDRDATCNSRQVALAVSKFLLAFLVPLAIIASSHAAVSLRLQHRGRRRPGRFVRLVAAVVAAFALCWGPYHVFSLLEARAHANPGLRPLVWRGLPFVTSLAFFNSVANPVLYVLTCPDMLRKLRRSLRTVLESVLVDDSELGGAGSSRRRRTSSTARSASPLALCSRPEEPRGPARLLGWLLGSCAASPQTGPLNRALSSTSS
Outline: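 Membranes (8-20 μg protein) from HEK cells expressing human CRTH2 were incubated with [3H]PGD2 and competitor in 1% DMSO for 60 min at room temperature. Non-specific binding was defined with excess PGD2. Bound radioactivity was separated by filtration and counted by melt-on scintillation.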

| Ki | SMILES |
| --- | --- |
| ≤ 10 nM | CC1(c2nc3cc(F)c(F)cc3[nH]2)CC(c2ccc3c(=O)n(-c4ccc(F)cc4)c(CCCCC(=O)O)nc3c2)=NO1 (stereo not shown) [Example 194] |
| ≤ 10 nM | Cc1cccc2nc(C3(C)CC(c4ccc5c(=O)n(-c6ccc(F)cc6)c(CCCCC(=O)O)nc5c4)=NO3)[nH]c12 (stereo not shown) [Example 195] |
| ≤ 10 nM | C[C@@]1(c2nc3cc(C(F)(F)F)ccc3[nH]2)CC(c2ccc3c(=O)n(-c4ccc(F)cc4)c(CCCCC(=O)O)nc3c2)=NO1 [Example 196] |
| ≤ 10 nM | CC1(c2nc3cc(Cl)c(F)cc3[nH]2)CC(c2ccc3c(=O)n(-c4ccc(F)cc4)c(CCCCC(=O)O)nc3c2)=NO1 (stereo not shown) [Example 197] |
| ≤ 10 nM | CC1(c2nc3cc(F)cc(F)c3[nH]2)CC(c2ccc3c(=O)n(-c4ccc(F)cc4)c(CCCCC(=O)O)nc3c2)=NO1 (stereo not shown) [Example 198] |
| ≤ 10 nM | C[C@@]1(c2cc3ccccn3n2)CC(c2ccc3c(=O)n(-c4ccc(F)cc4)c(CCCCC(=O)O)nc3c2)=NO1 [Example 201] |
| 10 to 50 nM | C[C@]1(c2cc3ccccn3n2)CC(c2ccc3c(=O)n(-c4ccc(F)cc4)c(CCCCC(=O)O)nc3c2)=NO1 [Example 202] |
| ≤ 10 nM | Cc1cccc2[nH]c([C@]3(C)CC(c4ccc5c(=O)n(-c6ccc(F)cc6)c(CCCCC(=O)O)nc5c4)=NO3)nc12 [Example 203] |
| ≤ 10 nM | CC1(c2nc3cc(F)ccc3[nH]2)CC(c2ccc3c(=O)n(-c4ccc(Cl)cc4)c(CCCCC(=O)O)nc3c2)=NO1 (stereo not shown) [Example 205] |
| ≤ 10 nM | CC1(c2nc3cc(Cl)ccc3[nH]2)CC(c2ccc3c(=O)n(-c4ccc(Cl)cc4)c(CCCCC(=O)O)nc3c2)=NO1 (stereo not shown) [Example 206] |
| 10 to 50 nM and 17 nM | C[C@@]1(c2nc3cc(F)c(F)cc3[nH]2)CC(c2ccc3c(=O)n(-c4ccc(F)cc4)c(CCCCC(=O)O)nc3c2)=NO1 [Example 207] |
| ≤ 10 nM | C[C@]1(c2nc3cc(F)c(F)cc3[nH]2)CC(c2ccc3c(=O)n(-c4ccc(F)cc4)c(CCCCC(=O)O)nc3c2)=NO1 [Example 208] |
| ≤ 10 nM | C[C@@]1(c2nc3cc(Cl)c(F)cc3[nH]2)CC(c2ccc3c(=O)n(-c4ccc(F)cc4)c(CCCCC(=O)O)nc3c2)=NO1 [Example 209] |
| 10 to 50 nM | C[C@]1(c2nc3cc(Cl)c(F)cc3[nH]2)CC(c2ccc3c(=O)n(-c4ccc(F)cc4)c(CCCCC(=O)O)nc3c2)=NO1 [Example 210] |
| ≤ 10 nM | C[C@@]1(c2nc3c(F)cc(F)cc3[nH]2)CC(c2ccc3c(=O)n(-c4ccc(F)cc4)c(CCCCC(=O)O)nc3c2)=NO1 [Example 213] |
| ≤ 10 nM | CC1(c2nc3cc(F)c(F)cc3[nH]2)CC(c2ccc3c(=O)n(-c4ccc(Cl)cc4)c(CCCCC(=O)O)nc3c2)=NO1 (stereo not shown) [Example 219] |
| ≤ 10 nM | C[C@@]1(c2nc3ccc(F)cc3[nH]2)CC(c2ccc3c(=O)n(-c4ccc(Cl)cc4)c(CCCCC(=O)O)nc3c2)=NO1 [Example 220] |
| ≤ 10 nM | C[C@@]1(c2nc3ccc(Cl)cc3[nH]2)CC(c2ccc3c(=O)n(-c4ccc(Cl)cc4)c(CCCCC(=O)O)nc3c2)=NO1 [Example 222] |
| ≤ 10 nM | C[C@@]1(c2nc3cc(F)c(F)cc3[nH]2)CC(c2ccc3c(=O)n(-c4ccc(Cl)cc4)c(CCCCC(=O)O)nc3c2)=NO1 [Example 224] |
| 10 to 50 nM | C[C@]1(c2nc3cc(F)c(F)cc3[nH]2)CC(c2ccc3c(=O)n(-c4ccc(Cl)cc4)c(CCCCC(=O)O)nc3c2)=NO1 [Example 225] |
| 10 to 50 nM | CC1(c2cnc3ccccc3n2)CC(c2ccc3c(=O)n(-c4ccc(F)cc4)c(CCCCC(=O)O)nc3c2)=NO1 (stereo not shown) [Example 230] |
| ≤ 10 nM | C[C@@]1(c2cccc(Br)c2)CC(c2ccc3c(=O)n(-c4ccc(F)cc4)c(CCCCC(=O)O)nc3c2)=NO1 [Example 235] |
| 10 to 50 nM | C[C@]1(c2cccc(Br)c2)CC(c2ccc3c(=O)n(-c4ccc(F)cc4)c(CCCCC(=O)O)nc3c2)=NO1 [Example 236] |

The next lines start with the compound.

| SMILES | Ki |
| --- | --- |
| C[C@@]1(C(=O)Nc2cc(F)ccc2O)CC(c2ccc3c(=O)n(-c4ccc(F)cc4)c(CCCCC(=O)O)nc3c2)=NO1 [Example 190] | 50 to 100 nM and 96.2 nM |
| C[C@@]1(C(=O)Nc2ccccc2O)CC(c2ccc3c(=O)n(-c4ccc(F)cc4)c(CCCCC(=O)O)nc3c2)=NO1 [Example 191] | ≤ 10 nM |
| CC(C)(C)OC(=O)C1(C)CC(c2ccc3c(=O)n(-c4ccc(F)cc4)c(CCCCC(=O)O)nc3c2)=NO1 (stereo not shown) [Example 192] | ≤ 10 nM |
| CC1(c2cc3ccccn3n2)CC(c2ccc3c(=O)n(-c4ccc(F)cc4)c(CCCCC(=O)O)nc3c2)=NO1 (stereo not shown) [Example 193] | ≤ 10 nM |
| CC1(C(=O)N2Cc3ccccc3C2)CC(c2ccc3c(=O)n(-c4ccc(F)cc4)c(CCCCC(=O)O)nc3c2)=NO1 (stereo not shown) [Example 199] | ≤ 10 nM |
| CC1(C(=O)O)CC(c2ccc3c(=O)n(-c4ccc(F)cc4)c(CCCCC(=O)O)nc3c2)=NO1 (stereo not shown) [Example 200] | 10 to 50 nM |
| CC1(C(=O)N2CCc3ccccc32)CC(c2ccc3c(=O)n(-c4ccc(F)cc4)c(CCCCC(=O)O)nc3c2)=NO1 (stereo not shown) [Example 211] | ≤ 10 nM |
| CC1(C(=O)N2CCCCC2)CC(c2ccc3c(=O)n(-c4ccc(F)cc4)c(CCCCC(=O)O)nc3c2)=NO1 (stereo not shown) [Example 212] | 10 to 50 nM |
| C[C@@]1(C(=O)N[C@H]2c3ccccc3C[C@H]2O)CC(c2ccc3c(=O)n(-c4ccc(F)cc4)c(CCCCC(=O)O)nc3c2)=NO1 [Example 215] | ≤ 10 nM |
| C[C@]1(C(=O)N[C@@H]2c3ccccc3C[C@@H]2O)CC(c2ccc3c(=O)n(-c4ccc(F)cc4)c(CCCCC(=O)O)nc3c2)=NO1 [Example 216] | 10 to 50 nM |
| CC1(c2ncc3ccccn23)CC(c2ccc3c(=O)n(-c4ccc(F)cc4)c(CCCCC(=O)O)nc3c2)=NO1 (stereo not shown) [Example 226] | 10 to 50 nM |
| C[C@@]1(c2ncc3ccccn23)CC(c2ccc3c(=O)n(-c4ccc(F)cc4)c(CCCCC(=O)O)nc3c2)=NO1 [Example 227] | 10 to 50 nM |
| CC1(C(=O)Nc2ccc(F)cc2O)CC(c2ccc3c(=O)n(-c4ccc(F)cc4)c(CCCCC(=O)O)nc3c2)=NO1 (stereo not shown) [Example 229] | ≤ 10 nM |
| C[C@@]1(C(=O)Nc2ccc(F)cc2O)CC(c2ccc3c(=O)n(-c4ccc(F)cc4)c(CCCCC(=O)O)nc3c2)=NO1 [Example 231] | ≤ 10 nM |
| C[C@@]1(C(=O)NCc2ccccc2)CC(c2ccc3c(=O)n(-c4ccc(F)cc4)c(CCCCC(=O)O)nc3c2)=NO1 [Example 234] | 10 to 50 nM |
| C[C@@]1(C(=O)NCc2ccc(C#N)cc2)CC(c2ccc3c(=O)n(-c4ccc(F)cc4)c(CCCCC(=O)O)nc3c2)=NO1 [Example 237] | 10 to 50 nM |
| C[C@@]1(C(=O)N2Cc3ccccc3C2)CC(c2ccc3c(=O)n(-c4ccc(F)cc4)c(CCCCC(=O)O)nc3c2)=NO1 [Example 238] | 10 to 50 nM |
| C[C@@]1(C(=O)N2CC[C@H](c3ccccc3)C2)CC(c2ccc3c(=O)n(-c4ccc(F)cc4)c(CCCCC(=O)O)nc3c2)=NO1 [Example 239] | 10 to 50 nM |
| COc1ccc(Cc2nc(-c3ccc4c(=O)n(-c5ccc(F)cc5)c(CCCCC(=O)O)nc4c3)no2)cc1 [Example 240] | ≤ 10 nM |
| O=C(O)CCCCc1nc2cc(-c3noc(CCc4ccc(F)cc4)n3)ccc2c(=O)n1-c1ccc(F)cc1 [Example 241] | ≤ 10 nM |
| O=C(O)CCCCc1nc2cc(-c3noc(C4Cc5ccccc5C4)n3)ccc2c(=O)n1-c1ccc(F)cc1 [Example 242] | ≤ 10 nM |
| N#Cc1ccc(Cc2nc(-c3ccc4c(=O)n(-c5ccc(F)cc5)c(CCCCC(=O)O)nc4c3)no2)cc1 [Example 243] | 10 to 50 nM |
| O=C(O)CCCCc1nc2cc(-c3noc(C4CCCc5ccccc54)n3)ccc2c(=O)n1-c1ccc(F)cc1 (stereo not shown) [Example 244] | ≤ 10 nM |
